These results are taken from patent US8841483B2, “Compositions useful as inhibitors of voltage-gated sodium channels” (Vertex Pharmaceuticals Incorporated, priority 2006, dated 2014).

SMILES strings stand for the structures. A value given as a limit tells only on which side of the number the result lay.

Chain of NaV1.2 (Q99250 whole entry, looked up): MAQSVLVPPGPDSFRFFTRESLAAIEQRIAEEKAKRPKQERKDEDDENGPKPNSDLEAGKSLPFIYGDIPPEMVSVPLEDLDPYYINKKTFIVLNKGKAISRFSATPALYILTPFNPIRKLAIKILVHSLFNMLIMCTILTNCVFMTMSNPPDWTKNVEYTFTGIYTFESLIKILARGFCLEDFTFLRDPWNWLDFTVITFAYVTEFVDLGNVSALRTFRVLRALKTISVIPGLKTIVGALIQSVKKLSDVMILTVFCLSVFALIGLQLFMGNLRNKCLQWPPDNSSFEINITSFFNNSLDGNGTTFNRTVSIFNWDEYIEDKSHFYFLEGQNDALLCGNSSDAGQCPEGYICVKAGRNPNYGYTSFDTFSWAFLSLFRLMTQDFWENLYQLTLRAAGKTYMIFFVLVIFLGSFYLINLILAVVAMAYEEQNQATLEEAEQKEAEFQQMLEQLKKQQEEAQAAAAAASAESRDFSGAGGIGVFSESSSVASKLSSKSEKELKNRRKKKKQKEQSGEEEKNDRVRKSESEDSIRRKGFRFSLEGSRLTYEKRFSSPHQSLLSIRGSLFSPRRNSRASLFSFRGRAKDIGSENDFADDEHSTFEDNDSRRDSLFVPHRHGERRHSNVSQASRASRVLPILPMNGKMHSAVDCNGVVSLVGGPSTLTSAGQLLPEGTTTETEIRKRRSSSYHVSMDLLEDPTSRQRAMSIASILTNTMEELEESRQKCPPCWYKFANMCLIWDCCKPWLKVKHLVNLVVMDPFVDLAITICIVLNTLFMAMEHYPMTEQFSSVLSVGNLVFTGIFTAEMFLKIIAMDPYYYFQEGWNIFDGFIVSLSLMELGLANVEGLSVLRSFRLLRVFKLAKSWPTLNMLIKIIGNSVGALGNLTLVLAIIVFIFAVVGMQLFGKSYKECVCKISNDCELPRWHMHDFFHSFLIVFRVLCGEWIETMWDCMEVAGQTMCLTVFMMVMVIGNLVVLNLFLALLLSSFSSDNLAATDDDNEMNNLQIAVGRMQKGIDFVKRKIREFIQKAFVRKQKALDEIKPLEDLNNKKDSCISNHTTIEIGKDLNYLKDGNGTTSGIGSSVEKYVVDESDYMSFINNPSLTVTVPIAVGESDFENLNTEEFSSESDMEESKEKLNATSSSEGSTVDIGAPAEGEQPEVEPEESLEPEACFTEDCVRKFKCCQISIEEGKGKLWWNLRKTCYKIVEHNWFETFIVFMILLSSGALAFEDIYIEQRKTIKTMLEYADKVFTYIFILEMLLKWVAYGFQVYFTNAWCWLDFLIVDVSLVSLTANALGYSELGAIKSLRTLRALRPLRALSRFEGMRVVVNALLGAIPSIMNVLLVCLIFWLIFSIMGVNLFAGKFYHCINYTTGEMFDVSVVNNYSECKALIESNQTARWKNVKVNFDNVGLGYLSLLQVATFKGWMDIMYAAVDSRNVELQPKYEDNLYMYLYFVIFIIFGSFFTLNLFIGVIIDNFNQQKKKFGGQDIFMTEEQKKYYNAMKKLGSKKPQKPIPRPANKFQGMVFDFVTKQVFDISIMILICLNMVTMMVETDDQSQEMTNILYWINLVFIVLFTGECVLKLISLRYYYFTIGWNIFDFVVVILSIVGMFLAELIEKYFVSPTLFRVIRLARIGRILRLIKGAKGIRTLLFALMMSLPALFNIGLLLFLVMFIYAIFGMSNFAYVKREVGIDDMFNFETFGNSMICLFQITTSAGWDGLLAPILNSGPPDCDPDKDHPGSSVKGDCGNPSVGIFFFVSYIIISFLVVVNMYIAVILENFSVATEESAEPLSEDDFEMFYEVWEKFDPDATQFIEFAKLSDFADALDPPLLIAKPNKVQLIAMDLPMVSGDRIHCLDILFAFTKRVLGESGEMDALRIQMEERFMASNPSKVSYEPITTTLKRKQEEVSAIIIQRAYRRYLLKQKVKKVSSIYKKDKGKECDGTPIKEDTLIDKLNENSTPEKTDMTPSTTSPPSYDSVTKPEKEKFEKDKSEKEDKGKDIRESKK

The target of the first assay is NaV1.9 (Homo sapiens, UniProt Q9UI33).
Assay: not given
The following applies: read-out: TTX IC50; cited from earlier work.
With `NC1=N[C@H](O)[C@H]2[C@H]3O[C@]4(O)O[C@@H]([C@@H](O)[C@@]2(N1)[C@@H]4O)[C@]3(O)CO` [TTX, tetrodotoxin], the IC50 was 1 µM.

A further assay concerns the target NaV1.2 (Homo sapiens, UniProt Q99250).
Assay: not given
As to conditions: read-out: TTX IC50; cited from earlier work.
In the case of `NC1=N[C@H](O)[C@H]2[C@H]3O[C@]4(O)O[C@@H]([C@@H](O)[C@@]2(N1)[C@@H]4O)[C@]3(O)CO` [TTX, tetrodotoxin], the IC50 is 0.01 µM.

Another assay has as its target NaV1.6 (Homo sapiens, UniProt Q9UQD0).
Assay: not given
As to conditions: read-out: TTX IC50; cited from earlier work.
With `NC1=N[C@H](O)[C@H]2[C@H]3O[C@]4(O)O[C@@H]([C@@H](O)[C@@]2(N1)[C@@H]4O)[C@]3(O)CO` [TTX, tetrodotoxin], the IC50 is 0.006 µM.

A further assay deals with T1, NaV1.8 (Homo sapiens, UniProt Q9Y5Y9). As to the kind of experiment: Activity against NaV 1.8 channel (Table 3), optical membrane potential / electrophysiology assays. It counts as cell-based.
T1 sequence (Q9Y5Y9 whole entry, looked up): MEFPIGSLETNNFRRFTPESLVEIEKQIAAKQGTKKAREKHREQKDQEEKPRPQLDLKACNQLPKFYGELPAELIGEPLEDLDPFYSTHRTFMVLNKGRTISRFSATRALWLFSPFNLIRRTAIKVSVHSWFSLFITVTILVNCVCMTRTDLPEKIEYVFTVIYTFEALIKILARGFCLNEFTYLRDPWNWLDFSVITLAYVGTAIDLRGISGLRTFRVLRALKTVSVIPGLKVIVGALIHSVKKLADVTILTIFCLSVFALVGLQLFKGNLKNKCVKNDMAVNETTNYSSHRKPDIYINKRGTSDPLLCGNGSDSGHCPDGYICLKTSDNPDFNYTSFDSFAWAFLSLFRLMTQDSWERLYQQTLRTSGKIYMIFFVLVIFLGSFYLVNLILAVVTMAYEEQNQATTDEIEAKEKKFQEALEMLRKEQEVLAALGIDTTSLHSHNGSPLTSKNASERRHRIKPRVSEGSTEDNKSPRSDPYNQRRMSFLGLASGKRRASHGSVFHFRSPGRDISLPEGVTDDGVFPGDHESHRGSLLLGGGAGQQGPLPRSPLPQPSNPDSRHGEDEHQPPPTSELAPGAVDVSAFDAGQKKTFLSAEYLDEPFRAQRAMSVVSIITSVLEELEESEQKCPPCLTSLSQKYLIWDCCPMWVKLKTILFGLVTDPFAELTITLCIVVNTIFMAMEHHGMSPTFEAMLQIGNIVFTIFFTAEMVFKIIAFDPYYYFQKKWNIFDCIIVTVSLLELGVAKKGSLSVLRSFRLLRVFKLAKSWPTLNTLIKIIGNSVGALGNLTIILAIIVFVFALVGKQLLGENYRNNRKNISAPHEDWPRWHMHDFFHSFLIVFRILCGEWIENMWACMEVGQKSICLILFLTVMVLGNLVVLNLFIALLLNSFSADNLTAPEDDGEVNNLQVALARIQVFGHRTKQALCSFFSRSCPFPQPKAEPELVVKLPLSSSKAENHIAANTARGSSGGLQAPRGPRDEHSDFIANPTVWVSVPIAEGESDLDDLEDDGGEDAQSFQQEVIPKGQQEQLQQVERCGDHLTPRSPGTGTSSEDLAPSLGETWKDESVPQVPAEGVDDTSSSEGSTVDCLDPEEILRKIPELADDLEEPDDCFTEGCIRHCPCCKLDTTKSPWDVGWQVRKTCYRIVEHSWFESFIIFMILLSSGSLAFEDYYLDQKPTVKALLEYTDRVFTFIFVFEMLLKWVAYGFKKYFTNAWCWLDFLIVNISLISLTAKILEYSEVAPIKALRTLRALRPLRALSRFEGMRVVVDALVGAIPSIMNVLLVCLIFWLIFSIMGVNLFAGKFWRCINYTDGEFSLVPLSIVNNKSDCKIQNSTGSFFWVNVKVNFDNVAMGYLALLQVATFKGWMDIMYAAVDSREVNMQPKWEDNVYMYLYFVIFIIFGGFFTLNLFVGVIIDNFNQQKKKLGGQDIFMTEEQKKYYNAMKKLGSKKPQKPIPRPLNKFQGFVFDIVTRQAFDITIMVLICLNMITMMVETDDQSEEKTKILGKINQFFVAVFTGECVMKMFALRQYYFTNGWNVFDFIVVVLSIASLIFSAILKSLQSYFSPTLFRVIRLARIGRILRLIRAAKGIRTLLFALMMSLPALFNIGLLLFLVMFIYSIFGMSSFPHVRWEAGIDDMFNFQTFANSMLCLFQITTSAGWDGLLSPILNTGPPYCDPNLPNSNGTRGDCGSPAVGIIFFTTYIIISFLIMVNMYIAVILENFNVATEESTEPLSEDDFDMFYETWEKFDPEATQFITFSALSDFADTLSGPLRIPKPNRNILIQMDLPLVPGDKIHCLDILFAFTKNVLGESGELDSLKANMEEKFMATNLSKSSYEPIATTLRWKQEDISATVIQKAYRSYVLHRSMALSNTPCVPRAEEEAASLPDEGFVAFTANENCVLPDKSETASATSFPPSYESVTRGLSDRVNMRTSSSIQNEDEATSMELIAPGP
Settings: not given
Here is the method: Compounds of the invention are useful as antagonists of voltage-gated sodium ion channels. Antagonist properties of test compounds were assessed as follows. Cells expressing the NaV of interest were placed into microtiter plates. After an incubation period, the cells were stained with fluorescent dyes sensitive to the transmembrane potential. The test compounds were added to the microtiter plate. The cells were stimulated with either a chemical or electrical means ti evoke a NaV dependent membrane potential change from unblocked channels, which was detected and measured with trans-membrane potential-sensitive dyes. Antagonists were detected as a decreased membrane potential response to the stimulus. The optical membrane potential assay utilized voltage-sensitive FRET sensors described by Gonzalez and Tsien (See, Gonzalez, J. E. and R. Y. Tsien (1995) “Voltage sensing by fluorescence resonance energy transfer in single cells” Biophys J 69(4): 1272-80, and Gonzalez, J. E. and R. Y. Tsien (1997) “Improved indicators of cell membrane potential that use fluorescence resonance energy transfer” Chem Biol 4(4): 269-77) in combination with instrumentation for measuring fluorescence changes such as the Voltage/Ion Probe Reader (VIPR®) (See, Gonzalez, J. E., K. Oades, et al. (1999) “Cell-based assays and instrumentation for screening ion-channel targets” Drug Discov Today 4(9): 431-439).
The following is an example of how NaV1.3 inhibition activity is measured using the optical membrane potential method #2. Other subtypes are performed in an analogous mode in a cell line expressing the NaV of interest.
HEK293 cells stably expressing NaV1.3 are plated into 96-well microtiter plates. After an appropriate incubation period, the cells are stained with the voltage sensitive dyes CC2-DMPE/DiSBAC2(3) as follows.
2X CC2-DMPE=20 μM CC2-DMPE: 10 mM CC2-DMPE is vortexed with an equivalent volume of 10% pluronic, followed by vortexing in required amount of HBSS containing 10 mM HEPES. Each cell plate will require 5 mL of 2X CC2-DMPE. 50 μL of 2X CC2-DMPE is to wells containing washed cells, resulting in a 10 μM final staining concentration. The cells are stained for 30 minutes in the dark at RT.
2X DISBAC2(3) with ABSC1=6 μM DISBAC2(3) and 1 mM ABSC1: The required amount of 10 mM DISBAC2(3) is added to a 50 ml conical tube and mixed with 1 μL 10% pluronic for each mL of solution to be made and vortexed together. Then HBSS/HEPES is added to make up 2X solution. Finally, the ABSC1 is added.
The 2X DiSBAC2(3) solution can be used to solvate compound plates. Note that compound plates are made at 2X drug concentration. Wash stained plate again, leaving residual volume of 50 μL. Add 50 uL/well of the 2X DiSBAC2(3) w/ABSC1. Stain for 30 minutes in the dark at RT.
The electrical stimulation instrument and methods of use are described in ION Channel Assay Methods PCT/US01/21652, herein incorporated by reference. The instrument comprises a microtiter plate handler, an optical system for exciting the coumarin dye while simultaneously recording the coumarin and oxonol emissions, a waveform generator, a current- or voltage-controlled amplifier, and a device for inserting electrodes in well. Under integrated computer control, this instrument passes user-programmed electrical stimulus protocols to cells within the wells of the microtiter plate.
Assay Protocol • 1. Insert or use electrodes into each well to be assayed. • 2. Use the current-controlled amplifier to deliver stimulation wave pulses for 3 s. Two seconds of pre-stimulus recording are performed to obtain the un-stimulated intensities. Five seconds of post-stimulation recording are performed to examine the relaxation to the resting state.
Data are analyzed and reported as normalized ratios of background-subtracted emission intensities measured in the 460 nm and 580 nm channels. Background intensities are then subtracted from each assay channel. […]
`CCCCOc1ccc(C(=O)Nc2cccc(S(N)(=O)=O)c2)cc1` [Compound 57]: the IC50 was > 10 µM.

For the molecule `NS(=O)(=O)c1cccc(NC(=O)c2ccc(C(F)(F)F)cc2O)c1` [Compound 100], the IC50 was > 10 µM.

As for `CC(C)(C)c1ccc(C(=O)Nc2cccc(S(N)(=O)=O)c2)c(Oc2ccc(F)cc2Cl)c1` [Compound 101], the IC50 is < 2 µM.

As for `NS(=O)(=O)c1cccc(NC(=O)c2cccc(N3CCNC3=O)c2)c1` [Compound 86], the IC50 is > 10 µM.

With `Cc1ccccc1Oc1cc(C(C)(C)C)ccc1C(=O)Nc1cccc(S(N)(=O)=O)c1` [Compound 55], the IC50 is < 2 µM.

Regarding `NS(=O)(=O)c1cccc(NC(=O)c2ccc(Cl)cc2Br)c1` [Compound 70], the IC50 is > 10 µM.

With `COc1ccc(Oc2cc(C(C)(C)C)ccc2C(=O)Nc2cccc(S(N)(=O)=O)c2)cc1` [Compound 88], the IC50 was < 2 µM.

For `COc1cc(C)ccc1C(=O)Nc1cccc(S(N)(=O)=O)c1` [Compound 77], the IC50 is > 10 µM.

As for `CC(C)(C)c1ccc(C(=O)Nc2cccc(S(N)(=O)=O)c2)c(Oc2ccc(C(N)=O)cc2)c1` [Compound 118], the IC50 is > 10 µM.

Take `CC(C)(C)c1ccc(C(=O)Nc2cccc(S(N)(=O)=O)c2)c(Br)c1` [Compound 93]: the IC50 is < 2 µM.

As to `NS(=O)(=O)c1cccc(NC(=O)c2ccc3ccccc3c2)c1` [Compound 62], the IC50 was > 10 µM.

On to `NS(=O)(=O)c1cccc(NC(=O)c2ccc(Cc3ccccc3)cc2)c1` [Compound 5], for which the IC50 was > 10 µM.

`CC(C)(C)c1ccc(C(=O)Nc2cccc(S(N)(=O)=O)c2)c(Oc2cc(C(F)(F)F)ncn2)c1` [Compound 129]: the 50% inhibitory concentration (IC50) is > 10 µM.

Regarding `COC(=O)c1ccc(C(=O)Nc2cccc(S(N)(=O)=O)c2)cc1` [Compound 37], the IC50 was > 10 µM.

For the molecule `CS(=O)(=O)c1ccc(C(=O)Nc2cccc(S(N)(=O)=O)c2)c(Cl)c1` [Compound 127], the IC50 was > 10 µM.

Consider `CN(C)c1ccc(C(=O)Nc2cccc(S(N)(=O)=O)c2)cc1` [Compound 33], for which the IC50 was > 10 µM.

With `CN(C)c1ccccc1C(=O)Nc1cccc(S(N)(=O)=O)c1` [Compound 44], the IC50 is > 10 µM.

On to `CC(C)(C)c1ccc(C(=O)Nc2cccc(S(N)(=O)=O)c2)c(Oc2ccc(C(F)(F)F)nc2)c1` [Compound 115], for which the IC50 is < 2 µM.

As to `CC(C)(C)c1ccc(C(=O)Nc2cccc(S(N)(=O)=O)c2)c(Oc2ccc(Cl)cc2Cl)c1` [Compound 113], the IC50 was < 2 µM.

As for `NS(=O)(=O)c1cccc(NC(=O)c2ccc(-c3ncc[nH]3)cc2)c1` [Compound 19], the IC50 was > 10 µM.

Regarding `CC(C)(C)c1ccc(C(=O)Nc2cc(S(N)(=O)=O)ccc2Cl)cc1` [Compound 87], the IC50 was > 10 µM.

As for `NS(=O)(=O)c1cccc(NC(=O)c2ccccc2Cc2ccccc2)c1` [Compound 7], the IC50 is < 2 µM.

As for `CC(C)(C)c1cccc(Nc2ccccc2C(=O)Nc2cccc(S(N)(=O)=O)c2)c1` [Compound 26], the IC50 was > 10 µM.

For `COc1ccc(C(=O)Nc2cccc(S(N)(=O)=O)c2)cc1` [Compound 22], the IC50 was > 10 µM.

`Cc1ccc(S(N)(=O)=O)cc1NC(=O)c1ccc(Cl)cc1[N+](=O)[O-]` [Compound 41]: the IC50 is > 10 µM.

`NS(=O)(=O)c1cccc(NC(=O)c2ccccc2Oc2ccc(F)cc2)c1` [Compound 95]: the IC50 is < 2 µM.

For `NS(=O)(=O)c1cccc(NC(=O)c2ccccc2OCc2ccccc2)c1` [Compound 51], the IC50 was > 10 µM.

For the molecule `NS(=O)(=O)c1cccc(NC(=O)c2ccccc2Oc2ccccc2)c1` [Compound 63], the half-maximal inhibitory concentration (IC50) was 2 to 10 µM.

`COc1ccc(C(=O)Nc2cccc(S(N)(=O)=O)c2)c(C(F)(F)F)c1` [Compound 133]: the IC50 was > 10 µM.

As for `CC(C)(C)c1ccc(C(=O)Nc2cccc(S(N)(=O)=O)c2)c(Oc2ccc(C#N)cc2Cl)c1` [Compound 143], the IC50 is < 2 µM.

For the molecule `Cc1ccc(C(=O)Nc2cccc(S(N)(=O)=O)c2)cc1` [Compound 38], the IC50 is > 10 µM.

For the molecule `CN(C)S(=O)(=O)c1cccc(NC(=O)c2ccc(C(C)(C)C)cc2)c1` [Compound 72], the concentration for half-maximal inhibition (IC50) was > 10 µM.

Another assay deals with T1, NaV1.8.
Assay: not given
As to conditions: read-out: TTX IC50; cited from earlier work.
As to `NC1=N[C@H](O)[C@H]2[C@H]3O[C@]4(O)O[C@@H]([C@@H](O)[C@@]2(N1)[C@@H]4O)[C@]3(O)CO` [TTX, tetrodotoxin], the IC50 is > 50 µM.

In another assay the target is NaV1.3 (Homo sapiens, UniProt Q9NY46).
Assay: not given
As to conditions: read-out: TTX IC50; cited from earlier work.
Turning to `NC1=N[C@H](O)[C@H]2[C@H]3O[C@]4(O)O[C@@H]([C@@H](O)[C@@]2(N1)[C@@H]4O)[C@]3(O)CO` [TTX, tetrodotoxin], the IC50 is 0.015 µM.

In the next assay the target is NaV1.1 (Homo sapiens, UniProt P35498).
Assay: not given
As to conditions: read-out: TTX IC50; cited from earlier work.
Take `NC1=N[C@H](O)[C@H]2[C@H]3O[C@]4(O)O[C@@H]([C@@H](O)[C@@]2(N1)[C@@H]4O)[C@]3(O)CO` [TTX, tetrodotoxin]: the IC50 is 0.01 µM.

As a reminder, the IC50 is the concentration needed to halve the response being measured.
